Experimental data published in PubChem BioAssay AID1963873 (Molecular Pharmacology Branch, DTP, NCI, 2024).

System: 276233-004-R-J1-PDC KRAS spheroids with HUVEC/MSC, viability
Assay: Anticancer human tumor 276233-004-R-J1-PDC patient-derived colon adenocarcinoma cell line growth inhibition [KRAS2]
Conditions: for IC50: curve of first compound; for viability, T/C: stronger effect = lower value
Procedure, shortened: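 KRAS-mutant tumor cells were grown as spheroids with HUVEC endothelial cells and human MSCs as stroma. Targeted agents were tested alone and with KRAS pathway inhibitors. Doses started at or near clinical Cmax, or 10 microM, descending half-log.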

[1] = second compound 0.1 µM, first compound 0.0316 µM
[2] = second compound 0.1 µM, first compound 0.1 µM
[3] = second compound 0.1 µM, first compound 0.316 µM
[4] = second compound 0.1 µM, first compound 1 µM
[5] = second compound 0.1 µM, first compound 3.16 µM
[6] = second compound 0.1 µM, first compound 10 µM
[7] = second compound 0.316 µM, first compound 0.0316 µM
[8] = second compound 0.316 µM, first compound 0.1 µM
[9] = second compound 0.316 µM, first compound 0.316 µM
[10] = second compound 0.316 µM, first compound 1 µM
[11] = second compound 0.316 µM, first compound 3.16 µM
[12] = second compound 0.316 µM, first compound 10 µM
[13] = second compound 1 µM, first compound 0.0316 µM
[14] = second compound 1 µM, first compound 0.1 µM
[15] = second compound 1 µM, first compound 0.316 µM
[16] = second compound 1 µM, first compound 1 µM
[17] = second compound 1 µM, first compound 3.16 µM
[18] = second compound 1 µM, first compound 10 µM
[19] = second compound 3.16 µM, first compound 0.0316 µM
[20] = second compound 3.16 µM, first compound 0.1 µM
[21] = second compound 3.16 µM, first compound 0.316 µM
[22] = second compound 3.16 µM, first compound 1 µM
[23] = second compound 3.16 µM, first compound 3.16 µM
[24] = second compound 3.16 µM, first compound 10 µM
[25] = second compound 10 µM, first compound 0.0316 µM
[26] = second compound 10 µM, first compound 0.1 µM
[27] = second compound 10 µM, first compound 0.316 µM
[28] = second compound 10 µM, first compound 1 µM
[29] = second compound 10 µM, first compound 3.16 µM
[30] = second compound 10 µM, first compound 10 µM
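Note: cells exposed to agents for seven days before viability read.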
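Throughout, for viability, T/C: 100% = DMSO vehicle control wells and lower values mean fewer viable cells.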

SMILES | IC50 (second compound 0.1 µM) [µM] | IC50 (second compound 0.316 µM) [µM] | IC50 (second compound 1 µM) [µM] | IC50 (second compound 3.16 µM) [µM] | IC50 (second compound 10 µM) [µM] | viability, T/C [1] [%] | viability, T/C [2] [%] | viability, T/C [3] [%] | viability, T/C [4] [%] | viability, T/C [5] [%] | viability, T/C [6] [%] | viability, T/C [7] [%] | viability, T/C [8] [%] | viability, T/C [9] [%] | viability, T/C [10] [%] | viability, T/C [11] [%] | viability, T/C [12] [%] | viability, T/C [13] [%] | viability, T/C [14] [%] | viability, T/C [15] [%] | other results
COc1cc(Nc2ncc3c(n2)-c2ccc(Cl)cc2C(c2c(F)cccc2OC)=NC3)ccc1C(=O)O + COc1cc2nc(C)nc(NC(C)c3cc(N)cc(C(F)(F)F)c3)c2cc1OC1CCOC1 | > 10 | > 10 | > 10 | > 10 | < 0.0316 | 79.9 | 78.9 | 74.3 | 68 | 61.6 | 57.1 | 83.3 | 69.9 | 70.9 | 69.5 | 67.2 | 54.6 | 91.7 | 67.4 | 63.5 | viability, T/C [16]: 68%; viability, T/C [17]: 58.4%; viability, T/C [18]: 55.2%; viability, T/C [19]: 70%; viability, T/C [20]: 60.4%; viability, T/C [21]: 56.6%; viability, T/C [22]: 54.1%; viability, T/C [23]: 74.6%; viability, T/C [24]: 57.4%; viability, T/C [25]: 29.1%; viability, T/C [26]: 37.9%; viability, T/C [27]: 30.9%; viability, T/C [28]: 21.2%; viability, T/C [29]: 31.4%; viability, T/C [30]: 17.6%
COc1cc2nccc(Oc3ccc(NC(=O)C4(C(=O)Nc5ccc(F)cc5)CC4)cc3)c2cc1OC + COc1cc2nc(C)nc(NC(C)c3cc(N)cc(C(F)(F)F)c3)c2cc1OC1CCOC1 | > 10 | > 10 | > 10 | > 10 | < 0.0316 | 74.9 | 98.7 | 87.2 | 92 | 78.9 | 98.8 | 85.9 | 80.8 | 111 | 99.7 | 79.3 | 101 | 84.7 | 85.7 | 88.6 | viability, T/C [16]: 71.4%; viability, T/C [17]: 60.2%; viability, T/C [18]: 110%; viability, T/C [19]: 75.8%; viability, T/C [20]: 81.1%; viability, T/C [21]: 103%; viability, T/C [22]: 60.8%; viability, T/C [23]: 44.2%; viability, T/C [24]: 98.3%; viability, T/C [25]: 22.5%; viability, T/C [26]: 17.7%; viability, T/C [27]: 19.5%; viability, T/C [28]: 11.5%; viability, T/C [29]: 1.3%; viability, T/C [30]: 26.8%
O=C(c1cc(Cc2n[nH]c(=O)c3ccccc23)ccc1F)N1CCN(C(=O)C2CC2)CC1 + COc1cc2nc(C)nc(NC(C)c3cc(N)cc(C(F)(F)F)c3)c2cc1OC1CCOC1 | > 10 | > 10 | > 10 | > 10 | 0.11 | 89.7 | 102 | 92.5 | 96 | 103 | 86.5 | 91.1 | 100 | 98 | 88.9 | 87.3 | 75.8 | 102 | 111 | 96.8 | viability, T/C [16]: 89.2%; viability, T/C [17]: 96.8%; viability, T/C [18]: 86.3%; viability, T/C [19]: 71.4%; viability, T/C [20]: 77.8%; viability, T/C [21]: 85.8%; viability, T/C [22]: 66%; viability, T/C [23]: 68.3%; viability, T/C [24]: 58%; viability, T/C [25]: 98.9%; viability, T/C [26]: 45.8%; viability, T/C [27]: 40.9%; viability, T/C [28]: 35.5%; viability, T/C [29]: 26%; viability, T/C [30]: 21.6%
